# Measured values as given in patent US7750003B2, “Compounds-943” (AstraZeneca AB, priority 2006, dated 2010).
# Test system: phosphorylation of Serine 473 in Akt in MDA-MB-468 human breast adenocarcinoma cells
# Assay: In vitro phospho-Ser473 Akt assay (Test (c))
# Type: cell-based
# Details: Homo sapiens, MDA-MB-468, 2 h, MDA-MB-468 cells, 2 hours incubation; read-out: Test (c): IC50 versus Serine 473 in Akt
# Method: (c) In Vitro Phospho-Ser473 Akt Assay
# This assay determines the ability of test compounds to inhibit phosphorylation of Serine 473 in Akt as assessed using Acumen Explorer technology (Acumen Bioscience Limited), a plate reader that can be used to rapidly quantitate features of images generated by laser-scanning.
# A MDA-MB-468 human breast adenocarcinoma cell line (LGC Promochem, Teddington, Middlesex, UK, Catalogue No. HTB-132) was routinely maintained at 37° C. with 5% CO2 up to a confluency of 70-90% in DMEM containing 10% heat-inactivated FCS and 1% L-glutamine.
# For the assay, the cells were detached from the culture flask using ‘Accutase’ (Innovative Cell Technologies Inc., San Diego, Calif., USA; Catalogue No. AT104) using standard tissue culture methods and resuspended in media to give 1.7×10^5 cells per mL. Aliquots (90 μl) were seeded into each of the inner 60 wells of a black Packard 96 well plate (PerkinElmer, Boston, Mass., USA; Catalogue No. 6005182) to give a density of 15000 cells per well. Aliquots (90 μl) of culture media were placed in the outer wells to prevent edge effects. The cells were incubated overnight at 37° C. with 5% CO2 to allow them to adhere.
# On day 2, the cells were treated with test compounds and incubated for 2 hours at 37° C. with 5% CO2. Test compounds were prepared as 10 mM stock solutions in DMSO and serially diluted as required with growth media to give a range of concentrations that were 10-fold the required final test concentrations. Aliquots (10 μl) of each compound dilution were placed in a well (in triplicate) to give the final required concentrations. As a minimum response control, each plate contained wells having a final concentration of 100 μM LY294002 (Calbiochem, Beeston, UK, Catalogue No. 440202). As a maximum response control, wells contained 1% DMSO instead of test compound. Following incubation, the contents of the plates were fixed by treatment with a 1.6% aqueous formaldehyde solution (Sigma, Poole, Dorset, UK, Catalogue No. F1635) at room temperature for 1 hour.
# All subsequent aspiration and wash steps were carried out using a Tecan 96 well plate washer (aspiration speed 10 mm/sec). The fixing solution was removed and the contents of the plates were washed with phosphate-buffered saline (PBS; 50 μl; Gibco, Catalogue No. 10010015). The contents of the plates were treated for 10 minutes at room temperature with an aliquot (50 μl) of a cell permeabilisation buffer consisting of a mixture of PBS and 0.5% Tween-20. The ‘permeabilisation’ buffer was removed and non-specific binding sites were blocked by treatment for 1 hour at room temperature of an aliquot (50 μl) of a blocking buffer consisting of 5% dried skimmed milk [‘Marvel’ (registered trade mark); Premier Beverages, Stafford, GB] in a mixture of PBS and 0.05% Tween-20. The ‘blocking’ buffer was removed and the cells were incubated for 1 hour at room temperature with rabbit anti phospho-Akt (Ser473) antibody solution (50 μl per well; Cell Signalling, Hitchin, Herts, U.K., Catalogue No 9277) that had been diluted 1:500 in ‘blocking’ buffer. Cells were washed three times in a mixture of PBS and 0.05% Tween-20. Subsequently, cells were incubated for 1 hour at room temperature with Alexafluor488 labelled goat anti-rabbit IgG (50 μl per well; Molecular Probes, Invitrogen Limited, Paisley, UK, Catalogue No. A11008) that had been diluted 1:500 in ‘blocking’ buffer. Cells were washed 3 times with a mixture of PBS and 0.05% Tween-20. An aliquot of PBS (50 μl) was added to each well and the plates were sealed with black plate sealers and the fluorescence signal was detected and analysed.
# Fluorescence dose response data obtained with each compound were analysed and the degree of inhibition of Serine 473 in Akt was expressed as an IC50 value.
row,SMILES,IC50 [µM]
1,"CNC(=O)Nc1ccc(-c2nc(N3CCOC[C@@H]3C)cc(C(C)(C)S(C)(=O)=O)n2)cn1 [Example 24ah, 3-methyl-1-[5-[4-[(3S)-3-methylmorpholin-4-yl]-6-(2-methylsulfonylpropan-2-yl)pyrimidin-2-yl]pyridin-2-yl]urea]",0.51
2,"CNC(=O)Nc1ccc(-c2nc(N3CCOC[C@@H]3C)cc(C(C)(C)S(=O)(=O)C3CC3)n2)cc1 [Example 57, 1-[4-[4-(2-Cyclopropylsulfonylpropan-2-yl)-6-[(3S)-3-methylmorpholin-4-yl]pyrimidin-2-yl]phenyl]-3-methyl-urea]",0.25
3,"C[C@H]1COCCN1c1cc(C(C)(C)S(C)(=O)=O)nc(-c2ccc(NC(=O)NCc3ncc[nH]3)cc2)n1 [Example 24au, 3-(1H-imidazol-2-ylmethyl)-1-[4-[4-[(3S)-3-methylmorpholin-4-yl]-6-(2-methylsulfonylpropan-2-yl)pyrimidin-2-yl]phenyl]urea]",2.4
4,"C[C@H]1COCCN1c1cc(CS(=O)(=O)C2CC2)nc(-c2ccc(NC(=O)NC3CCC3)cc2)n1 [Example 57l, 3-cyclobutyl-1-[4-[4-(cyclopropylsulfonylmethyl)-6-[(3S)-3-methylmorpholin-4-yl]pyrimidin-2-yl]phenyl]urea]",0.088
5,"C[C@H](CO)NC(=O)Nc1ccc(-c2nc(N3CCOC[C@@H]3C)cc(C(C)(C)S(C)(=O)=O)n2)cc1 [Example 24ap, 3-[(2R)-1-hydroxypropan-2-yl]-1-[4-[4-[(3S)-3-methylmorpholin-4-yl]-6-(2-methylsulfonylpropan-2-yl)pyrimidin-2-yl]phenyl]urea]",0.077
6,"COCc1cc(N2CCOC[C@@H]2C)nc(-c2ccc(NC(=O)NC3CC3)cc2)n1 [Example 54, 3-Cyclopropyl-1-[4-[4-(methoxymethyl)-6-[(3S)-3-methylmorpholin-4-yl]pyrimidin-2-yl]phenyl]urea]",0.11
7,"C[C@H]1COCCN1c1cc(C(C)(C)S(=O)(=O)C2CC2)nc(-c2ccc(NC(=O)NC(C)(C)CO)cc2)n1 [Example 57a, 1-[4-[4-(2-cyclopropylsulfonylpropan-2-yl)-6-[(3S)-3-methylmorpholin-4-yl]pyrimidin-2-yl]phenyl]-3-(1-hydroxy-2-methyl-propan-2-yl)urea]",0.064
8,"C[C@H]1COCCN1c1cc(CS(=O)(=O)c2ccc(F)cc2)nc(-c2ccc(NC(=O)NC3CCC3)cc2)n1 [Example 61, 3-Cyclobutyl-1-[4-[4-[(4-fluorophenyl)sulfonylmethyl]-6-[(3S)-3-methylmorpholin-4-yl]pyrimidin-2-yl]phenyl]urea]",0.33
9,"C[C@H]1COCCN1c1cc(C(C)(C)S(C)(=O)=O)nc(-c2ccc(NC(=O)NCc3cnn(C)c3)cc2)n1 [Example 24av, 1-[4-[4-[(3S)-3-methylmorpholin-4-yl]-6-(2-methylsulfonylpropan-2-yl)pyrimidin-2-yl]phenyl]-3-[(1-methylpyrazol-4-yl)methyl]urea]",4.9
10,"CC(C)CNC(=O)Nc1ccc(-c2nc(N3CCOC[C@@H]3C)cc(C(C)(C)S(C)(=O)=O)n2)cc1 [Example 24at, 1-[4-[4-[(3S)-3-methylmorpholin-4-yl]-6-(2-methylsulfonylpropan-2-yl)pyrimidin-2-yl]phenyl]-3-(2-methylpropyl)urea]",0.089
11,"C[C@H]1COCCN1c1cc(C(C)(C)S(C)(=O)=O)nc(-c2ccc(NC(=O)NCc3cc[nH]n3)cc2)n1 [Example 24ay, 1-[4-[4-[(3S)-3-methylmorpholin-4-yl]-6-(2-methylsulfonylpropan-2-yl)pyrimidin-2-yl]phenyl]-3-(1H-pyrazol-3-ylmethyl)urea]",7.9
12,"C[C@H]1COCCN1c1cc(CS(=O)(=O)CCO)nc(-c2ccc(NC(=O)NCc3cnn(C)c3)cc2)n1 [Example 53b, 1-[4-[4-(2-hydroxyethylsulfonylmethyl)-6-[(3S)-3-methylmorpholin-4-yl]pyrimidin-2-yl]phenyl]-3-[(1-methylpyrazol-4-yl)methyl]urea]",3
13,"C[C@H]1COCCN1c1cc(C(C)(C)S(C)(=O)=O)nc(-c2ccc(NC(=O)N(C)C)cc2)n1 [Example 24ba, 1,1-dimethyl-3-[4-[4-[(3S)-3-methylmorpholin-4-yl]-6-(2-methylsulfonylpropan-2-yl)pyrimidin-2-yl]phenyl]urea]",5.1
14,"C[C@H]1COCCN1c1cc(C(C)(C)S(C)(=O)=O)nc(-c2ccc(NC(=O)N3CCC3)cc2)n1 [Example 24be, N-[4-[4-[(3S)-3-methylmorpholin-4-yl]-6-(2-methylsulfonylpropan-2-yl)pyrimidin-2-yl]phenyl]azetidine-1-carboxamide]",4.9
15,"C[C@H]1COCCN1c1cc(C(=O)N2CCOCC2)nc(-c2ccc(NC(=O)NC3CC3)cc2)n1 [Example 63, 3-Cyclopropyl-1-[4-[4-[(3S)-3-methylmorpholin-4-yl]-6-(morpholine-4-carbonyl)pyrimidin-2-yl]phenyl]urea]",0.41
16,"C[C@H]1COCCN1c1cc(CS(=O)(=O)C2CC2)nc(-c2ccc(NC(=O)NCCN(C)C)cc2)n1 [Example 57f, 1-[4-[4-(cyclopropylsulfonylmethyl)-6-[(3S)-3-methylmorpholin-4-yl]pyrimidin-2-yl]phenyl]-3-(2-dimethylaminoethyl)urea]",0.72

# The remaining lines, values ahead:
row,IC50 [µM],SMILES
1,0.14,"CC(C)S(=O)(=O)C(C)(C)c1cc(N2CCOC[C@@H]2C)nc(-c2ccc(NC(=O)NCCN(C)C)cc2)n1 [Example 60p, 3-(2-dimethylaminoethyl)-1-[4-[4-[(3S)-3-methylmorpholin-4-yl]-6-(2-propan-2-ylsulfonylpropan-2-yl)pyrimidin-2-yl]phenyl]urea]"
2,0.22,"CC(C)S(=O)(=O)Cc1cc(N2CCOC[C@@H]2C)nc(-c2ccc(NC(=O)NC(C)(C)CO)cc2)n1 [Example 60g, 3-(1-hydroxy-2-methyl-propan-2-yl)-1-[4-[4-[(3S)-3-methylmorpholin-4-yl]-6-(propan-2-ylsulfonylmethyl)pyrimidin-2-yl]phenyl]urea]"
3,0.26,"CCNC(=O)Nc1ccc(-c2nc(N3CCOC[C@@H]3C)cc(C(C)(C)S(=O)(=O)C(C)(C)C)n2)cc1 [Example 66e, 3-ethyl-1-[4-[4-[(3S)-3-methylmorpholin-4-yl]-6-(2-tert-butylsulfonylpropan-2-yl)pyrimidin-2-yl]phenyl]urea]"
4,1.9,"CC(C)S(=O)(=O)Cc1cc(N2CCOC[C@@H]2C)nc(-c2ccc(NC(=O)Nc3cnn(C)c3)cc2)n1 [Example 60h, 1-[4-[4-[(3S)-3-methylmorpholin-4-yl]-6-(propan-2-ylsulfonylmethyl)pyrimidin-2-yl]phenyl]-3-(1-methylpyrazol-4-yl)urea]"
5,0.12,"CNC(=O)Nc1ccc(-c2nc(N3CCOC[C@@H]3C)cc(C(C)(C)S(=O)(=O)c3ccc(F)cc3)n2)cc1 [Example 61k, 1-[4-[4-[2-(4-fluorophenyl)sulfonylpropan-2-yl]-6-[(3S)-3-methylmorpholin-4-yl]pyrimidin-2-yl]phenyl]-3-methyl-urea]"
6,3.3,"CCCNC(=O)Nc1ccc(-c2nc(CS(=O)(=O)C(C)C)cc(N3CCOC[C@@H]3C)n2)cc1 [Example 60a, 3-[4-[4-[(3S)-3-methylmorpholin-4-yl]-6-(propan-2-ylsulfonylmethyl)pyrimidin-2-yl]phenyl]-1-propyl-urea]"
7,0.21,"CC(C)CNC(=O)Nc1ccc(-c2nc(N3CCOC[C@@H]3C)cc(C(C)(C)S(=O)(=O)C(C)C)n2)cc1 [Example 60r, 1-[4-[4-[(3S)-3-methylmorpholin-4-yl]-6-(2-propan-2-ylsulfonylpropan-2-yl)pyrimidin-2-yl]phenyl]-3-(2-methylpropyl)urea]"
